In patent US20240041042A1, “1-(PYRIDYL)-5-AZINYLPYRAZOLE DERIVATIVES, AND THEIR USE FOR CONTROL OF UNDESIRED PLANT GROWTH” (Bayer Aktiengesellschaft, priority 2020, published 2024):
Like-named read-outs stand apart in the source and are kept apart here.

Columns and labels:
Format in all cases: in vivo
[1] = test system: Alopecurus myosuroides (ALOMY); test: Post-emergence herbicidal action against ALOMY; conditions: 320 g/ha, visual rating about 3 weeks after treatment vs untreated controls (100% = plants have died, 0% = like control plants)
In short: (§1)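 Values are percent visual activity (0% like control, 100% plants dead) after about 3 weeks in the greenhouse. Treatment: post-emergence spray at one-leaf stage, 600 l/ha spray volume, 0.5% additive, doses 320 g/ha or lower.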

[2] = test system: Viola tricolor (VIOTR); test: Pre-emergence herbicidal action against VIOTR
In short: (§2)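 Greenhouse pot trial: seeds sown, soil-covered, sprayed before emergence with compound in water (0.5% additive; 600 l/ha; ≤320 g/ha). Scoring visual, ~3 weeks, 0–100% scale vs untreated.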

[3] = test system: Zea mays (ZEAMX); conditions: crop plant compatibility, effect vs untreated controls
In short: (§3)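 Greenhouse crops in sandy loam sprayed post-emergence at the one-leaf stage, 2–3 weeks after sowing, with WP or EC formulations in water plus 0.5% additive at 600 l/ha. Damage rated visually about 3 weeks later versus untreated controls (0% = like control, 100% = dead); suffixes a–c denote different doses.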

[4] = test system: Oryza sativa (ORYSA); conditions: crop plant compatibility, 80 g/ha, effect in comparison to untreated controls
In short: as §3

[5] = test system: Setaria viridis (SETVI); test: Pre-emergence herbicidal action against SETVI; conditions: dosage 320 g/ha
In short: as §2

[6] = test system: Alopecurus myosuroides (ALOMY); test: Pre-emergence herbicidal action against ALOMY; conditions: scored visually after about 3 weeks, 100% = plants have died
In short: as §2

[7] = test system: Polygonum convolvulus (POLCO); test: Pre-emergence herbicidal action against POLCO
In short: as §2

[8] = test system: Amaranthus retroflexus (AMARE); test: Post-emergence herbicidal action against AMARE
In short: as §1

[9] = test system: Avena fatua (AVEFA); test: Pre-emergence herbicidal action against AVEFA; conditions: 320 g/ha, visual scoring after about 3 weeks vs untreated controls
In short: as §2

[10] = test system: Digitaria sanguinalis (DIGSA); test: Pre-emergence herbicidal action against DIGSA
In short: as §2

[11] = test system: Viola tricolor (VIOTR); test: Post-emergence herbicidal action against VIOTR
In short: as §1

[12] = test system: Avena fatua (AVEFA); test: Post-emergence herbicidal action against AVEFA; conditions: 320 g/ha, visual rating about 3 weeks after treatment
In short: as §1

[13] = test system: Verconica persica (VERPE); test: Post-emergence herbicidal action against VERPE
In short: as §1

[14] = test system: Polygonum convolvulus (POLCO); test: Post-emergence herbicidal action against POLCO
In short: as §1

[15] = test system: Pharbitis purpurea (PHBPU); test: Post-emergence herbicidal action against PHBPU
In short: as §1

[16] = test system: Echinochloa crus-galli (ECHCG); test: Pre-emergence herbicidal action against ECHCG; conditions: dosage 320 g/ha
In short: as §2

[17] = test system: Verconica persica (VERPE); test: Pre-emergence herbicidal action against VERPE
In short: as §2

[18] = test system: Triticum aestivum (TRZAS); conditions: pre-emergence, 80 g/ha, crop plant compatibility, in comparison to untreated controls
In short: (§4)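 Scoring: visual, % of untreated control, about 3 weeks after a pre-emergence application to the soil surface. Application used WP or EC formulations diluted in water with 0.5% additive at 600 l/ha; dosage levels are marked by suffixes a, b and c.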

[19] = test system: Lolium rigidum (LOLRI); test: Pre-emergence herbicidal action against LOLRI; conditions: dosage 320 g/ha
In short: as §2

[20] = test system: Matricaria inodora (MATIN); test: Pre-emergence herbicidal action against MATIN; conditions: dosage 320 g/ha
In short: as §2

[21] = test system: Echinochloa crus-galli (ECHCG); test: Post-emergence herbicidal action against ECHCG; conditions: dosage 320 g/ha
In short: as §1

[22] = test system: Abutilon theophrasti (ABUTH); test: Post-emergence herbicidal action against ABUTH; conditions: visual rating about 3 weeks after treatment vs untreated controls (100% = plants have died, 0% = like control plants)
In short: as §1

[23] = test system: Pharbitis purpurea (PHBPU); test: Pre-emergence herbicidal action against PHBPU; conditions: dosage 320 g/ha
In short: as §2

[24] = test system: Amaranthus retroflexus (AMARE); test: Pre-emergence herbicidal action against AMARE; conditions: visual scoring after about 3 weeks vs untreated controls
In short: as §2

[25] = test system: Setaria viridis (SETVI); test: Post-emergence herbicidal action against SETVI
In short: as §1

[26] = test system: Matricaria inodora (MATIN); test: Post-emergence herbicidal action against MATIN
In short: as §1

[27] = test system: Triticum aestivum (TRZAS); conditions: crop plant compatibility, 80 g/ha, effect vs untreated controls
In short: as §3

[28] = test system: Lolium rigidum (LOLRI); test: Post-emergence herbicidal action against LOLRI; conditions: dosage 320 g/ha
In short: as §1

[29] = test system: Oryza sativa (ORYSA); conditions: pre-emergence, 80 g/ha, crop plant compatibility, in comparison to untreated controls
In short: as §4

[30] = test system: Zea mays (ZEAMX); conditions: pre-emergence, crop plant compatibility, in comparison to untreated controls
In short: as §4

[31] = 320 g/ha, visual rating about 3 weeks after treatment

Post-emergence action against ZEAMX in % ([3]; 80 g/ha) [%]	Post-emergence action against ORYSA in % [4] [%]	Pre-emergence action against TRZAS in % [18] [%]	SMILES	Pre-emergence action against SETVI in % [5] [%]	Pre-emergence action against POLCO in % ([7]; dosage 80 g/ha) [%]	Pre-emergence action against POLCO in % ([7]; dosage 320 g/ha) [%]	Post-emergence action against AMARE in % [8, 31] [%]	Pre-emergence action against DIGSA in % ([10]; dosage 320 g/ha) [%]	Post-emergence action against VIOTR in % ([11]; 80 g/ha) [%]	Post-emergence action against VERPE in % ([13]; 320 g/ha, VERPE) [%]	Post-emergence action against VERPE in % ([13]; dosage 80 g/ha) [%]	Post-emergence action against PHBPU in % ([15]; dosage 80 g/ha) [%]	Post-emergence action against PHBPU in % ([15]; dosage 320 g/ha) [%]	Pre-emergence action against VERPE in % ([17]; dosage 320 g/ha) [%]	Pre-emergence action against LOLRI in % [19] [%]	Pre-emergence action against MATIN in % [20] [%]	Post-emergence action against ECHCG in % [21] [%]	Pre-emergence action against PHBPU in % [23] [%]	Pre-emergence action against AMARE in % ([24]; 320 g/ha) [%]	Post-emergence action against SETVI in % ([25]; dosage 320 g/ha) [%]	further results
0	0	10	COC(=O)[C@@H](C)Oc1nn(-c2ncccc2F)c(-c2cccnc2)c1Br [Example I-03]	100	90	100	90	100	90	90	80	90	100	100	100	100	90	90	100	90	Post-emergence action against ALOMY in % [1]: 100%; Pre-emergence action against VIOTR in % ([2]; 320 g/ha, Viola tricolor): 100%; Pre-emergence action against VIOTR in % ([2]; dosage 80 g/ha): 100%; Pre-emergence action against ALOMY ([6]; 80 g/ha): 90%; Pre-emergence action against ALOMY ([6]; 320 g/ha): 100%; Post-emergence action against AMARE in % ([8]; 80 g/ha, visual rating about 3 weeks after treatment vs untreated controls (100% = plants have died, 0% = like control plants)): 80%; Pre-emergence action against AVEFA in % [9]: 80%; Pre-emergence action against DIGSA in % ([10]; 80 g/ha, visual scoring after about 3 weeks vs untreated controls): 90%; Post-emergence action against VIOTR in % ([11]; 320 g/ha): 90%; Post-emergence action against AVEFA in % [12]: 90%; Post-emergence action against POLCO in % ([14]; dosage 80 g/ha): 90%; Post-emergence action against POLCO in % ([14]; dosage 320 g/ha): 90%; Pre-emergence action against ECHCG in % [16]: 80%; Pre-emergence action against VERPE in % ([17]; dosage 80 g/ha): 90%; Post-emergence action against ABUTH in % ([22]; 80 g/ha): 80%; Post-emergence action against ABUTH in % ([22]; 320 g/ha): 90%; Pre-emergence action against AMARE in % ([24]; 80 g/ha): 90%; Post-emergence action against MATIN in % ([26]; dosage 80 g/ha): 80%; Post-emergence action against MATIN in % ([26]; dosage 320 g/ha): 90%
–	10	20	COCCOC(=O)COc1nn(-c2cccc(C)n2)c(-c2ccc(F)nc2)c1Cl [Example I-279]	90	–	80	–	–	–	90	80	80	80	80	80	80	80	100	–	80	Post-emergence action against TRZAS in % [27]: 10%; Post-emergence action against LOLRI in % [28]: 80%; Pre-emergence action against ORYSA in % [29]: 0%; Post-emergence action against SETVI in % ([25]; dosage 80 g/ha): 80%
–	20	10	CCOC(=O)COc1nn(-c2cccc(C)n2)c(-c2ccc(F)nc2)c1Cl [Example I-352]	90	80	90	80	–	–	80	80	90	90	80	80	90	80	80	90	80	Post-emergence action against TRZAS in % [27]: 10%; Post-emergence action against AVEFA in % [12]: 80%; Pre-emergence action against ECHCG in % [16]: 90%; Post-emergence action against LOLRI in % [28]: 80%; Pre-emergence action against ORYSA in % [29]: 20%
0	0	20	CCOC(=O)COc1nn(-c2ccccn2)c(-c2ccc(Cl)nc2)c1Br [Example I-239]	–	–	–	80	90	80	80	80	80	90	–	–	–	–	–	90	–	Post-emergence action against ZEAMX in % ([3]; 320 g/ha): 20%; Post-emergence action against VIOTR in % ([11]; 320 g/ha): 80%; Post-emergence action against POLCO in % ([14]; dosage 80 g/ha): 80%; Post-emergence action against POLCO in % ([14]; dosage 320 g/ha): 80%; Pre-emergence action against ZEAMX in % ([30]; 80 g/ha): 0%; Pre-emergence action against ZEAMX in % ([30]; 320 g/ha): 20%; Pre-emergence action against AMARE in % ([24]; 80 g/ha): 80%; Post-emergence action against MATIN in % ([26]; dosage 320 g/ha): 80%
